Test results: patent US20220331348A1, “METHOD OF PREPARING PENTACYCLIC TRITERPENOID SAPONINS AND DRUG COMPOSITION” (CHINA PHARMACEUTICAL UNIVERSITY, priority 2019, published 2022)
Marks after values point to notes of the source that are not given here.

Assays:
[1] = test system: high fat diet induced NASH model rats; experiment: High fat diet (HFD) induced NASH rat model; assay type: in vivo; conditions: for Liver TC / Liver TG / Serum LDL-c / Serum TG: HFD induced NASH model rats; for Liver TC / Liver TG / Serum LDL-c / Serum TG / ALT / AST: n = 8; for ALT / AST: serum of HFD induced NASH model rats
Method: Animal: 32 SD male rats of SPF level with 6 weeks old and 220 g were purchased from Beijing Vital River Laboratory Animal Technology Co., Ltd. All the animals maintained 12 h alternative circadian rhythm with free access to food.
Reagent: the ginsenoside Ro (I) was purchased from Shanghai Boka Chemistry Technology Co., Ltd; obeticholic acid (OCA) was purchased from Jiangsu Vcare PharmaTech Co., Ltd; high fat diets were purchased from Research Diets (D12492, 60 kcal %); and standard feeds were purchased from Research Diets (D12450B, 10 kcal %).
The rats were randomly divided into 4 groups based on the weight: a control group (CHOW), a high fat diet model group (HFD), a positive drug obeticholic acid (OCA, 5 mg/Kg) group (HFD+OCA) and a ginsenoside Ro (Ro for short, 5 mg/kg) group (HFD+Ro). The control group was fed with the standard feeds and drank water normally; and the rest groups were fed with the high fat diets, drank 10% aqueous sucrose solution for replacing the water and were modeled for 20 weeks.
After 20 weeks, the control group and the high fat diet model group were given with a CMC-Na solution with the volume fraction of 0.5% intragastrically every day, the HFD+OCA group was given with the obeticholic acid (5 mg/Kg) intragastrically every day, and the HFD+Ro was given with the ginsenoside Ro (5 mg/Kg) intragastrically every day. Administration was conducted for 8 weeks, during which, the control group was given with the standard feeds and drank the water normally, and the rest three groups were given with the high fat diets and drank 10% aqueous sucrose solution. The rats in each group were weighed every day, weights, hairs, feces and activity conditions were carefully observed and recorded.
The rats were deprived of food but not water for 12 h in advance; and the next morning, blood was taken from eye sockets, the rats were sacrificed, and livers were harvested. Right liver lobule tissues were fixed with 4% paraformaldehyde for HE stained slicing. A part of liver tissues were divided into 3 parts, which were snap-frozen in liquid nitrogen for subsequent detection of other indexes.
Whole blood was left to still standing for 2 h at room temperature, centrifugation was conducted for 15 min at 3000 rpm, and a serum was collected. 100 Mg of liver tissues were taken and homogenized with 0.9 mL of precooled normal saline, a homogenate was centrifuged for 15 min at 4° C. and 3000 rpm, and a supernatant was taken. Both of the serum and the supernatant were sent to Pathologic Department of Hospital of Integrated Traditional Chinese and Western Medicine in Jiangsu Province for determination of levels of triglyceride (TG), total cholesterol (TC), low density lipoprotein cholesterin (LDL-c) and high density lipoprotein cholesterol (HDL-c) in the serum and levels of the TG and the TC in the supernatant of the homogenate of the liver tissues with the full-automatic biochemical analyzer.
Pretreated tissues were sent to Google Biotechnology Co., Ltd for preparing HE stained slices and oil red stained slices.
Liver tissues preserved at −80° C. were put in the liquid nitrogen, about 10 mg of the liver tissues were quickly dissected out, 500 μL of precooled tissue lysate was added, and the tissues were homogenized with a homogenizer and then left to lyse on ice for 30 min; and centrifugation was conducted for 15min at 4° C. and 12000 rpm, […] of a supernatant was sucked to a clean EP tube, […] of the supernatant was taken for BCA protein quantification, […] of 5*loading buffer was added in the rest protein supernatant for denaturing by boiling, SDS-PAGE electrophoresis was conducted subsequently, the proteins were transferred onto a PVDF membrane, then incubation and elution of a relevant antibody were conducted, and finally, a chemiluminescence apparatus was employed for imaging analysis.

[2] = test system: AMPK and mTOR signaling pathways in polycystic kidney epithelial cells; experiment: Western blot of AMPK and proliferation-related signal molecules in polycystic kidney epithelial cells; assay type: cell-based, human; conditions: 10 μM, 48 h, Western blot (FIG. 16)
Source text: Cell and reagent: complete media for human ADPKD cyst lining epithelial cell lines WT9-12 and DMEM were purchased from ATCC Company; fetal calf serums were purchased from Gibco Company; Cell Counting Kit-8 was purchased from DOJINDO Company; Click-iT® EdU Imaging Kits were purchased from Invitrogen™ Thermo Fisher Scientific Company; Caspase -3/CPP32 Colorimetric Assay Kit was purchased from BioVision Company; Annexin V/PI double-staining flow type cell apoptosis detection kits were purchased from Bender Company; and anti-Phospho-(AMPKa, mTOR, p70S6K, 4E-BP1) antibodies were purchased from Cell Signaling Technology Company.
Detection on protein expression with Western blot: cells in the control group and the treatment group (intervening the polycystic kidney epithelial cell with 10 μM of asperosaponin VI for 48 h) were collected, cells were lysed with a RIPA lysate for extraction of total proteins, the concentration of proteins was detected with a BCA method, and […] of sample proteins were taken for sample addition in sequence; after SDS-PAGE electrophoresis, the sample proteins were transferred onto PVDF membranes at a constant current (I=250 mA), were blocked for 1 h with 5% BSA and were incubated for 24 h with different primary antibodies; after the membranes were washed four times with TBST, incubation was conducted for 1.5 h at a normal temperature by using HRP-labeled second antibodies (1:10000); and after the membranes were washed four times with TBST, the proteins were developed with an ECL, and protein bands of various groups were subjected to gray scale analysis with an Image-J gel image analysis software.

[3] = HFD NASH rats, 5 mg/Kg intragastrically every day, 8 weeks (FIG. 4)
[4] = HFD NASH rats, 5 mg/Kg, 8 weeks, q-PCR (FIG. 6)
[5] = HFD NASH rats, 5 mg/Kg, 8 weeks, q-PCR (FIG. 7)
[6] = HFD NASH rats, summary in words

SMILES	inflammatory responses of the livers [1, 6]	lipid accumulation, caused by the high fat diets, of the rat livers [1, 6]	Liver TC ([1]; 5 mg/Kg)	Liver TG ([1]; 5 mg/Kg)	Serum LDL-c ([1]; 5 mg/Kg)	Serum TG ([1]; 5 mg/Kg)	ALT ([1]; 5 mg/Kg)	AST ([1]; 5 mg/Kg)	other results
CC1(C)CC[C@]2(C(=O)O[C@@H]3O[C@H](CO)[C@@H](O)[C@H](O)[C@H]3O)CC[C@]3(C)C(=CC[C@@H]4[C@@]5(C)CC[C@H](O[C@@H]6O[C@H](C(=O)O)[C@@H](O)[C@H](O)[C@H]6O[C@@H]6O[C@H](CO)[C@@H](O)[C@H](O)[C@H]6O)C(C)(C)[C@@H]5CC[C@]43C)[C@@H]2C1 [(I), ginsenoside Ro]	inhibits	significantly lower	–	–	–	–	–	–	level of the HDL-c in the serum [1, 3]: effectively lower; level of the LDL-c in the serum [1, 3]: effectively lower; level of the TC in the serum [1, 3]: effectively lower; contents of the TC in the livers ([1]; HFD NASH rats, 5 mg/Kg intragastrically every day, 8 weeks (FIG. 5)): significantly lowered; level of the TG in the serum ([1]; HFD NASH rats, 5 mg/Kg intragastrically every day, 8 weeks, vs HFD model group (FIG. 4)): significantly lower; level of the TG in the liver ([1]; HFD NASH rats, 5 mg/Kg intragastrically every day, 8 weeks, vs HFD model group (FIG. 5)): significantly lower; mRNA expression level of IL-6 in liver [1, 4]: significantly inhibit increase; mRNA expression level of IL-10 in liver [1, 4]: significantly inhibit increase; mRNA expression level of TNF-α in liver [1, 4]: significantly inhibit increase; mRNA expression level of TGF-β in liver [1, 5]: significantly inhibit increase; mRNA expression level of α-SMA in liver [1, 5]: significantly inhibit increase; liver fibrosis [1, 6]: inhibits
CC1(C)CC[C@]2(C(=O)O[C@@H]3O[C@H](CO[C@@H]4O[C@H](CO)[C@@H](O)[C@H](O)[C@H]4O)[C@@H](O)[C@H](O)[C@H]3O)CC[C@]3(C)C(=CC[C@@H]4[C@@]5(C)CC[C@H](O[C@@H]6OC[C@H](O)[C@H](O)[C@H]6O)[C@@](C)(CO)[C@@H]5CC[C@]43C)[C@@H]2C1 [(II), asperosaponin VI]	–	–	–	–	–	–	–	–	phosphorylation level of 4E-BP1 [2]: lowered; phosphorylation level of AMPKa [2]: increased; phosphorylation level of mTOR [2]: lowered; phosphorylation level of p70S6K [2]: lowered
C[C@H]1O[C@@H](O[C@H]2CC[C@@]3(C)[C@@H](CC[C@]4(C)[C@@H]3C=C[C@]35OC[C@@]6(CCC(C)(C)C[C@H]63)[C@@H](O)C[C@]54C)[C@]2(C)CO)[C@H](O)[C@@H](O[C@@H]2O[C@H](CO)[C@@H](O)[C@H](O)[C@H]2O)[C@H]1O [(VII), saikosaponin A]	inhibit	effectively lower	0.518 ± 0.133** mmoL/gprot	1.268 ± 0.294** mmoL/gprot	47.06 ± 7.83* mg/dL	20.43 ± 4.04* mg/dL	71.36 ± 9.26* U/L	115.24 ± 19.23*** U/L	–
C[C@H]1O[C@@H](O[C@H]2CC[C@@]3(C)[C@@H](CC[C@]4(C)[C@@H]3C=C[C@]35OC[C@@]6(CCC(C)(C)C[C@H]63)[C@H](O)C[C@]54C)[C@]2(C)CO)[C@H](O)[C@@H](O[C@@H]2O[C@H](CO)[C@@H](O)[C@H](O)[C@H]2O)[C@H]1O [(VIII), saikosaponin D]	inhibit	effectively lower	0.509 ± 0.248** mmoL/gprot	1.173 ± 0.606*** mmoL/gprot	46.75 ± 7.35** mg/dL	19.66 ± 5.12* mg/dL	67.74 ± 8.29** U/L	121.43 ± 9.28** U/L	–
C[C@@H]1CC[C@]2(C(=O)O[C@@H]3O[C@H](CO)[C@@H](O)[C@H](O)[C@H]3O)CC[C@]3(C)C(=CC[C@@H]4[C@@]5(C)CC[C@H](O[C@@H]6OC[C@H](O)[C@H](O)[C@H]6O)C(C)(C)[C@@H]5CC[C@]43C)[C@@H]2[C@]1(C)O [(XII), ziyuglycoside I]	inhibit	effectively lower	0.547 ± 0.272* mmoL/gprot	1.302 ± 0.443** mmoL/gprot	48.52 ± 6.98* mg/dL	18.32 ± 2.51** mg/dL	74.03 ± 12.38* U/L	120.91 ± 19.32** U/L	–
C[C@@H]1CC[C@]2(C(=O)O)CC[C@]3(C)C(=CC[C@@H]4[C@@]5(C)CC[C@H](O[C@@H]6OC[C@H](O)[C@H](O)[C@H]6O)C(C)(C)[C@@H]5CC[C@]43C)[C@@H]2[C@]1(C)O [(XIII), ziyuglycoside II]	inhibit	effectively lower	0.503 ± 0.256** mmoL/gprot	1.299 ± 0.387** mmoL/gprot	45.36 ± 5.37** mg/dL	19.41 ± 4.37* mg/dL	69.28 ± 12.33** U/L	122.16 ± 17.38** U/L	–
